Experimental findings from patent publication US12636368B2, “Ionizable lipids for nucleic acid delivery” (Global Life Sciences Solutions Canada ULC, priority 2019, dated 2026) are described below.

The pKa is the pH at which an ionisable group is half protonated.

Where two headings read alike, the source gives them in different places.

The nature of data set [1]: Nucleic acid encapsulation efficiency by RiboGreen assay. It is filed as physicochemical. The protocol: Messenger RNA or plasmid NAT was diluted using sodium acetate buffer to the required concentration. Lipid nucleic acid particle samples were then prepared by running both fluids using the NanoAssemblr® Spark instrument. […] The lipid nucleic acid particles made in the instrument were immediately diluted down with 48 μL Ca and Mg free 1×PBS at pH 7.4 in the aqueous output well. These nucleic acid lipid particles were immediately collected into microcentrifuge tubes containing 96 μL of Ca and Mg free 1×PBS at pH 7.4. Encapsulation efficiency was measured by a modified Ribogreen™ assay (Quanti-iT RiboGreen™ RNA assay kit, Fisher). Observed particle attributes were generally sized from 60-200 nm for mRNA, depending on lipid composition and method of production.
(§1) Physical characteristics of lipid nanoparticle (LNP) compositions comprising compounds according to Formula (I) and that were manufactured on the NanoAssemblr® Spark and Benchtop, are shown in Tables 6 and 7 below. Size, size variation of the LNP (PDI), encapsulation efficiency, and pKa are shown. The physical characteristics of these LNP are important from a standpoint of stability, biodistribution, and cell membrane crossing. There was good encapsulation in all the formulations, with polydispersity (PDI) under 0.3. Size and PDI were measured using dynamic light scattering techniques, and nucleic acid encapsulation efficiency was calculated from a modified Quant-iT RiboGreen RNA assay.

The nature of data set [2]: TNS assay, surface pKa of lipid nanoparticles. It is filed as physicochemical. The procedure: In embodiments of the invention, the experimental pKa of formulated lipid nanoparticles comprising lipids in Table 1 is calculated using the 2-(p-toluidinyl)naphthalene-6-sulfonic acid (TNS) assay. The procedure for the TNS assay is described in Example 25.
The pKa of each cationic lipid was determined in lipid nanoparticles using an assay based on fluorescence of 6-(p-Toluidino)-2-naphthalenesulfonic acid sodium salt (TNS, Sigma Aldrich), which is a fluorescent probe for the conformational state of proteins5. Empty lipid nanoparticles comprising ionizable lipid in LM02 composition in distilled water at a concentration of 3.125 mM total lipid are formulated using NanoAssemblr® Spark™, and were then was characterized for LNP quality on the Zetasizer™ using a 30× dilution with 1×PBS in the low volume cuvette. Lipid nanoparticles were further diluted 4× using distilled water to 0.781 mM total lipid. TNS was prepared as a 25 μM stock solution in distilled water. Then 6.4 μL of diluted LNP samples of 0.781 mM total lipid were mixed with 10 μL of diluted TNS to a final volume of 250 μL with buffer containing 10 mM HEPES, 10 mM MES, 10 mM NH4OAc and 130 mM NaCl where the pH ranged from 3 to 9 in 0.5 pH increments.
Samples were mixed thoroughly, and the fluorescence intensity was measured at room temperature in a BioTek™ Synergy™ H1 Hybrid Multi-Mode Monochromator™ Fluorescence Microplate Reader using excitation and emission wavelengths of 321 nm and 445 nm respectively. A sigmoidal best fit analysis was applied to the fluorescence data using GraphPad Prism™ software, and the pKa was measured as the pH at half-maximal fluorescence intensity.

Data set [3] is described as follows: LNP size and PDI by dynamic light scattering. The class given is physicochemical. The procedure: After the lipid particles were made as described supra, particle size (hydrodynamic diameter of the particles) was determined by Dynamic Light Scattering (DLS) using a ZetaSizer™ Nano ZS™ (Malvern Instruments, UK). He/Ne laser tuned to 633 nm wavelength was used as the light source. Data were measured from the scattered intensity data conducted in backscattering detection mode (measurement angle=173). Measurements were an average of 10 runs of two cycles each per sample. Z-Average size was reported as the particle size, and is defined as the harmonic intensity averaged particle diameter.
as §1

Data set [4] relates to C57BL/6 mice. As to the kind of experiment: OVA mRNA LNP intramuscular immunization, anti OVA-IgG ELISA. It is filed as in vivo. Conditions: i.m., days 1 and 10. From the text: LNP with the composition LM02b were used to encapsulate OVA antigen encoded CleanCap® OVA WT mRNA [TriLink L7610] or CleanCap® OVA 5-moU mRNA [TriLink L7210]. A lipid mixture of Ionizable lipid, DOPE, Cholesterol, and PEG-DMG2000, all in ethanol, was mixed with a low PH buffered solution of OVA mRNA at an N/P ratio of 8 using a NanoAssemblr® Ignite™ microfluidic mixer. The LNP were filtered using the Amicon™ ultra filtration technique and characterized for Size, PDI and Encapsulation Efficiency. Size and PDI were measured using dynamic light scattering techniques, and nucleic acid encapsulation efficiency was calculated from the Quant-iT RiboGreen RNA assay. […]
All animals were handled according to the Institutional Animal Care and Use Committee ethics protocols. […] Aliquots of serum samples were thawed and analyzed at appropriate dilutions for OVA expression and for IgG measurements using standard ELISA techniques.
Anti OVA-IgG ELISA of serum samples: Sera from the immunized mice were collected at 2 weeks post second immunization. OVA-specific production of IgG in response to OVA-encoded mRNA in various LNPs were measured by ELISA as described supra. […] After 30 minutes of incubation, a stop solution of 2 N sulphuric acid was added and a plate reader was used to determine absorbance at 450 nm. […]

The subject of data set [5] is primary human T cells. As to the kind of experiment: EPO ELISA after EPO mRNA LNP treatment of primary human T cells. The class given is cell-based. The conditions noted are these: Table 5; for EPO concentration (mIU/mL): EPO mRNA LNPs, 2 pg mRNA per 500,000 cells, N/P 10, 48 hours. The procedure:
Reagents were acquired from Quantikine, Minneapolis, MN. The assay was performed as directed on the Quantikine® IVD® ELISA Human Erythropoietin Immunoassay protocol. REF DEP00 Package Insert. Briefly; primary human T cells were isolated from fresh whole blood using a negative selection protocol and activated using a triple activator. Seven days post-activation, T cells were dosed with mRNA LNPs encoding EPO at 2 pg mRNA per 500,000 cells and N/P 10. Quantikine® Human Serum Controls were used. After 48 hours of treatment with mRNA LNPs the T cells were harvested and lysed for cytosolic EPO and media supernatant was sampled for secreted EPO. Table 5 includes the data of FIG. 6 as well as the fold increase of EPO for PNI 76 and 121 versus MC3.
On the technique in general: An ELISA detects its analyte on a solid surface through an enzyme-linked reagent.

Data set [6] has as its system isolated primary human T cells. As to the kind of experiment: GFP mRNA-LNP transfection of primary human T cells, flow cytometry. It is filed as cell-based. The protocol:
Reagents were from Stemcell Technologies unless otherwise stated. Tcells were isolated from a single donor. At 48 h following lipid particle mRNA exposure, the treated T cells were harvested by transferring the cell suspensions to pre-labeled 1.5 mL tubes and centrifuged 300×g at 4 degrees C. for 10 minutes. Supernatant was removed and the pellet resuspended in PBS. An amount of 0.5 ul of BD Horizon™ Fixable Viability Stain 575V™ (BD Biosciences), was added, and the mixture incubated in the dark for 10 minutes at RT. This stain binds to amines.
The cells were centrifuged again as before, then washed twice with 1 mL of stain buffer (BSA, BD Pharminigen), and the washed pellet was diluted in 100 μl BSA. The following antibodies were added to each tube of treated cells in 2 μl volumes: CD25, CD8, CD4, (PerCP-Cy™ 5.5 Mouse Anti Human CD25, BV786 Mouse Anti-Human CD8 Clone RPA-T8, APC-Cy™7 Mouse Anti-Human CD4 Clone SK3 (all from BD Pharmingen) with the exception of the controls: in the eGFP only sample and viability control, no antibody was added. In the single stain compensation tubes, only one antibody per tube was added.
The tubes were incubated at 4 degrees C. for 30 min, whereupon […] of stain buffer was added, and the cells were centrifuged again. Cells were washed once with 1 mL of stain buffer and spun down again as in step one. Cell pellets were resuspended in 1 mL of stain buffer and added to pre-labeled flow tubes with cell strainer caps (Corning Falcon). […]
GFP MFI was measured by flow cytometry 48 hours after LNP addition. T cells were isolated from whole blood using a negative isolation procedure (EasySep™ Human T Cell Isolation Kit, Stemcell Technologies). T cells were dosed with mRNA-LNPs 3 days after activation with 500 ng of encapsulated mRNA per 125,000 cells. The LNP were CT10 compositions with an N/P of 8. Transfection efficiency (upper graph) and MFI (lower graph) were measured by flow cytometry 48 h after LNP addition.

Data set [7] concerns human T cells. Briefly: eGFP ELISA after eGFP mRNA LNP treatment of human T cells. It is filed as cell-based. The conditions noted are these: Table 4. The procedure:
Reagents were acquired from Abcam, Cambridge, UK unless otherwise stated. […] The assay was performed as directed by the eGFP SimpleStep ELISA® Kit protocol. Briefly; frozen human T cells, previously isolated from fresh human whole blood using a negative selection protocol, were thawed and activated using a triple activator. […] After 48 hours of treatment with mRNA LNPs the T cells were harvested and lysed for total eGFP content.
In order to expose the isolated and activated T cells (Day 0) to the formulated mRNA, 2 ug of CleanCap™ eGFP (Trilink Biotechnologies, San Diego, CA) mRNA-containing LNP was added to 500,000 T cells in 1 mL of complete T cell media, with 1 ug/mL of Recombinant Human ApoE4 (“ApoE”) (Peprotech Inc., Montreal, Canada).
Frozen human T cells, previously isolated from fresh human whole blood using a negative selection protocol, were thawed and activated using a triple activator. At 10 days post-activation, T cells were dosed with CT10 mRNA LNPs LNP comprising DLin-MC3-DMA, PNI 76, PNI 119, PNI 120, PNI 121, and PNI 122 encoding eGFP at 2 pg mRNA per 500,000 cells and N/P 10. Protein expression was measured after 48 hours by eGFP ELISA.

[8] abbreviates: Table 6, GFP-encoded LNPs, CT10, N/P 8.
Where [9] appears, read: Table 7, EPO mRNA LNPs, LM02, N/P 6.
Setting [10] is: Table 1, formulated lipid nanoparticles, TNS assay, read-out: Exp. pKa.

As to `CCCCC/C=C\C/C=C\CCCCCCCC(=O)O[C@@H]1[C@@H](OC(=O)CCCCCCC/C=C\C/C=C\CCCCC)CO[C@@H]1COC(=O)C1CCN(C)CC1` (racemic) [PNI 325], the “Encapsulation Efficiency (%)” value came out at 51.1% in data set [1] (setting [8]) and 95.9% in data set [1] (setting [9]). For the same compound, the pKa in data set [2] (setting [10]) worked out at 6.45; in data set [2] (Table 8, read-out: Exp.pKa) it was 6.45. The “Diameter (Z. ave, nm)” value in data set [3] (setting [8]) came to 121.5 nm; in data set [3] (setting [9]), 65.3 nm. The “Polydispersity Index (PDI)” value in data set [3] (setting [8]) was determined as 0.39; in data set [3] (setting [9]), 0.09. Besides, the “immune response to OVA antigen loaded LNPs” value in data set [4] is on record as “effectively elicit an immune response similar to OVA antigen”.
For `CCCCC/C=C\C/C=C\CCCCCCCCC(CCCCCCCC/C=C\C/C=C\CCCCC)OC(=O)CCCN(C)C` [MC3, DLin-MC3-DMA, reference compound], in data set [5], the “EPO Fold Change Relative to MC3” value came out at 1.0 and the “EPO concentration (mIU/mL)” value is recorded as 545.2 mIU/mL. Further, the “Encapsulation Efficiency (%)” value in data set [1] (setting [8]) is on record as 88.6%. In addition, the “Encapsulation Efficiency (%)” value in data set [1] (setting [9]) is on record as 98.8%. Further, the “pKa Exp.” value in data set [2] (Table 5) was 5.99. Besides, in data set [3] (setting [8]), the “Diameter (Z. ave, nm)” value turned out to be 77.2 nm and the “Polydispersity Index (PDI)” value is on record as 0.11. Moreover, in data set [3] (setting [9]), the “Diameter (Z. ave, nm)” value came to 65.1 nm and the “Polydispersity Index (PDI)” value is 0.04.
Consider `CCCCCCCCCCCCCC(=O)O[C@H]1COC([C@@H](COC(=O)CCCN(C)C)OC(=O)CCCCCCCCCCCCC)[C@@H]1OC(=O)CCCCCCCCCCCCC` (stereo partly shown) [PNI 76], for which the “EPO Fold Change Relative to MC3” value in data set [5] came to 0.93. The “EPO concentration (mIU/mL)” value in data set [5] stood at 507.3 mIU/mL. Besides, the “transfection efficiency compared with MC3” value in data set [6] (FIG. 1, eGFP mRNA LNP, CT10, N/P 10, 48 hours after treatment) is “equal transfection efficiency as MC3”. The “% eGFP +” value in data set [6] (Table 4, transfection efficiency, eGFP mRNA LNPs, CT10, N/P 8) was determined as 62.35%. For the same compound, the “Encapsulation Efficiency (%)” value in data set [1] (setting [9]) stood at 88.9%. In addition, the pKa in data set [2] (setting [10]) was determined as 6.42; in data set [2] (Table 4, determined by TNS assay, read-out: pKa Ex.), 6.42; in data set [2] (Table 5, read-out: pKa Exp.), 6.42; in data set [2] (Table 8, read-out: Exp.pKa), 6.4. Also, the “Fold Change Relative to MC3” value in data set [7] (eGFP (pg) relative to MC3) came to 1.095. Also, the “eGFP” value in data set [7] (quantity of expressed eGFP, eGFP mRNA LNPs, CT10) is given as 1502.0 pg. For the same compound, in data set [3] (setting [9]), the “Diameter (Z. ave, nm)” value was 83.1 nm. For the same compound, the “Polydispersity Index (PDI)” value in data set [3] (setting [9]) was 0.16.
